Results reported in US5486516A, “Furopyrimidine derivatives” (DowElanco, priority 1993, dated 1996).

What was measured:
[1] = tested on: Pyricularia oryzae (rice blast); test: whole plant or invertebrate; format: in vivo; conditions: foliar, read-out: RICE BLAST control rating
[2] = tested on: Southern corn rootworm (Diabrotica undecimpuctata howardi Barber); test: Mite/insect screen, corn rootworm; format: in vivo; conditions: Diabrotica, soil, read-out: CRW results (percent mortality); for mortality at 12 ppm: CRW rate 12.00 ppm; for mortality at 24 ppm: CRW rate 24.00 ppm
In short: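 Compound in acetone/alcohol with emulsifiers, diluted with water; 1 mL applied to 15 g dry sandy soil holding a presoaked corn seed. After 6–12 h drying, five 2-3 instar larvae added, held at 23° C; percent mortality and phytotoxicity scored after standard exposure periods.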

[3] = tested on: southern armyworm (Spodopetra eridania Cramer); test: Mite/insect screen, Southern armyworm; format: in vivo; conditions: Spodoptera eridania, sprayed leaves, read-out: SAW results (percent mortality); for mortality at 200 ppm: rate 200 ppm; for mortality at 400 ppm: rate 400 ppm
In short: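 Compounds in acetone/alcohol with Toximul emulsifiers, diluted in water, sprayed to runoff on squash leaves at 10 psi and dried 1 h. Excised treated leaves fed to southern armyworm larvae in Petri dishes; percent mortality scored after standard exposure.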

[4] = tested on: Twospotted spider mites (Tetranychus urticae Koch); test: Mite/insect screen, twospotted spider mites; format: in vivo; conditions: Tetranychus urticae, sprayed leaves, read-out: SM results (percent mortality); for mortality at 200 ppm: rate 200 ppm; for mortality at 400 ppm: rate 400 ppm
In short: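 Squash cotyledons infested with mites were sprayed to runoff at 10 psi with compound in acetone/alcohol plus emulsifiers, diluted in water to the stated concentrations. Percent mortality and phytotoxicity were scored after standard exposure periods.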

[5] = tested on: melon aphids (Aphis gossvpii Glover); test: Mite/insect screen, melon aphids; format: in vivo; conditions: Aphis, sprayed leaves, read-out: MA results (percent mortality); for mortality at 200 ppm: rate 200 ppm; for mortality at 400 ppm: rate 400 ppm
In short: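 Aphids established on squash cotyledons were sprayed to runoff with compound in acetone/alcohol with sulfonate/nonionic emulsifiers, diluted in water to test concentrations. Leaves dried 1 h. Percent mortality scored after standard exposure periods.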

[6] = tested on: Puccinia recondita tritici (leaf rust); test: Plant pathology screen (Test 1), leaf rust on wheat; conditions: in Triticum aestivum, foliar, read-out: LEAF RUST control rating
Experimental: This screen was used to evaluate the efficacy of the present compounds against a variety of different organisms that cause plant diseases.
The test compounds were formulated for application by dissolving 50 mg of the compound into 1.25 ml of solvent. The solvent was prepared by mixing 50 ml of "Tween 20" (polyoxyethylene (20) sorbitan monolaurate emulsifier) with 475 ml of acetone and 475 ml of ethanol. The solvent/compound solution was diluted to 125 ml with deionized water. The resulting formulation contains 400 ppm test chemical. Lower concentrations were obtained by serial dilution with the solvent-surfactant mixture.
The formulated test compounds were applied by foliar spray.
The formulated technical compounds were sprayed on all foliar surfaces of the host plants (or cut berry) to past run-off. Single pots of each host plant were placed on raised, revolving pedestals in a fume hood. Test solutions were sprayed on all foliar surfaces. All treatments were allowed to dry and the plants were inoculated with the appropriate pathogens within 2-4 hours.
The effectiveness of test compounds in controlling disease was rated using the following scale.

[7] = tested on: Pseudoperonospora cubensis (downy mildew); test: Plant pathology screen (Test 1), downy mildew on squash; conditions: foliar, read-out: DOWN MDEW control rating
[8] = tested on: Erysiphe graminis tritici (powdery mildew); test: Plant pathology screen (Test 1), powdery mildew on wheat; conditions: Blumeria graminis, in Triticum aestivum, foliar, read-out: POWD MDEW control rating
[9] = tested on: Botrytis cinerea (gray mold); test: Plant pathology screen (Test 1), gray mold on grape berries; conditions: read-out: GRAY MOLD control rating

**Q.** How did the pest or weed control at 400 µg/mL [1] turn out when `Cc1oc2ncnc(NCCc3ccc(OC(F)(F)C(F)F)cc3)c2c1C` [Example 47, N-[2-[4-(1,1,2,2-tetrafluoroethoxy)phenyl]ethyl]-5,6-dimethylfuro[2,3-d]pyrimidin-4-amine] was run?
**A.** Its pest or weed control at 400 µg/mL is 90 to 100%.

**Q.** What about the mortality at 12 ppm [2] of the same molecule?
**A.** The mortality at 12 ppm was 100%.

**Q.** What about the mortality at 24 ppm [2] of the same molecule?
**A.** Its mortality at 24 ppm is 80%.

**Q.** And the mortality at 200 ppm [3]?
**A.** Its mortality at 200 ppm is 100%.

**Q.** What about the mortality at 400 ppm [3] of the same molecule?
**A.** Its mortality at 400 ppm is 0%.

**Q.** And the mortality at 200 ppm [4]?
**A.** Its mortality at 200 ppm is 90%.

**Q.** And the mortality at 400 ppm [4]?
**A.** Its mortality at 400 ppm is 100%.

**Q.** And the mortality at 200 ppm [5]?
**A.** Its mortality at 200 ppm is 100%.

**Q.** What about the mortality at 400 ppm [5] of the same molecule?
**A.** The mortality at 400 ppm was 100%.

**Q.** And the pest or weed control at 400 µg/mL [6]?
**A.** Its pest or weed control at 400 µg/mL is 90 to 100%.

**Q.** What about the pest or weed control at 400 µg/mL [7] of the same molecule?
**A.** Its pest or weed control at 400 µg/mL is 90 to 100%.

**Q.** And the pest or weed control at 400 µg/mL [8]?
**A.** Its pest or weed control at 400 µg/mL is 20 to 89%.

**Q.** What about the pest or weed control at 400 µg/mL [9] of the same molecule?
**A.** The pest or weed control at 400 µg/mL was 0 to 19%.

**Q.** With `Cc1oc2ncnc(OCCc3ccccc3C(F)(F)F)c2c1C` [Example 76, 5,6-dimethyl-4-[2-[2(trifluoromethyl)phenyl]ethoxy]furo[2,3-d]pyrimidine] as the molecule, how does the pest or weed control at 400 µg/mL [1] read?
**A.** The pest or weed control at 400 µg/mL was 0 to 19%.

**Q.** And the mortality at 24 ppm [2]?
**A.** Its mortality at 24 ppm is 60%.

**Q.** And the mortality at 400 ppm [3]?
**A.** The mortality at 400 ppm was 0%.

**Q.** What about the mortality at 400 ppm [4] of the same molecule?
**A.** Its mortality at 400 ppm is 0%.

**Q.** And the mortality at 400 ppm [5]?
**A.** Its mortality at 400 ppm is 0%.

**Q.** What about the pest or weed control at 400 µg/mL [6] of the same molecule?
**A.** The pest or weed control at 400 µg/mL was 0 to 19%.

**Q.** What about the pest or weed control at 400 µg/mL [7] of the same molecule?
**A.** Its pest or weed control at 400 µg/mL is 20 to 89%.

**Q.** And the pest or weed control at 400 µg/mL [8]?
**A.** The pest or weed control at 400 µg/mL was 90 to 100%.

**Q.** What about the pest or weed control at 400 µg/mL [9] of the same molecule?
**A.** Its pest or weed control at 400 µg/mL is 0 to 19%.

**Q.** What does the source list for `Cc1oc2ncnc(OCCN3C[C@@H](C)O[C@H](C)C3)c2c1C` (relative stereo) [Example 58, Trans-5,6-dimethyl-4-[2-(2,6-dimethyl-4-morpholinyl)ethoxy]furo[2,3-d]pyrimidine]?
**A.** pest or weed control at 400 µg/mL [1]: 0 to 19%; mortality at 12 ppm [2]: 0%; mortality at 24 ppm [2]: 0%; mortality at 200 ppm [3]: 0%; mortality at 400 ppm [3]: 0%; mortality at 200 ppm [4]: 0%; mortality at 400 ppm [4]: 0%; mortality at 200 ppm [5]: 0%; mortality at 400 ppm [5]: 0%; pest or weed control at 400 µg/mL [6]: 20 to 89%; pest or weed control at 400 µg/mL [7]: 20 to 89%; pest or weed control at 400 µg/mL [8]: 0 to 19%; pest or weed control at 400 µg/mL [9]: 0 to 19%
